According to patent publication US20230092890A1, “1, 3, 4-Oxadiazole derivative compounds as histone deacetylase 6 inhibitor, and the pharmaceutical composition comprising the same” (Chong Kun Dang Pharmaceutical Corp., priority 2019, published 2023):
pIC50: −log10 of the molar value.

What was measured:
HDAC1 = target: T1, HDAC1 (Homo sapiens, UniProt Q13547); test: HDAC enzyme activity inhibition (in vitro), HDAC1 Fluorimetric Drug Discovery Assay Kit; assay type: biochemical; details: samples at 100, 1000 and 10000 nM; 37° C. 60 minutes; fluorescence Ex 390, Em 460; read-out: HDAC1 IC50
T1 construct: purchased Enzolifesciences BML-AK511
T1 sequence (Q13547 whole entry): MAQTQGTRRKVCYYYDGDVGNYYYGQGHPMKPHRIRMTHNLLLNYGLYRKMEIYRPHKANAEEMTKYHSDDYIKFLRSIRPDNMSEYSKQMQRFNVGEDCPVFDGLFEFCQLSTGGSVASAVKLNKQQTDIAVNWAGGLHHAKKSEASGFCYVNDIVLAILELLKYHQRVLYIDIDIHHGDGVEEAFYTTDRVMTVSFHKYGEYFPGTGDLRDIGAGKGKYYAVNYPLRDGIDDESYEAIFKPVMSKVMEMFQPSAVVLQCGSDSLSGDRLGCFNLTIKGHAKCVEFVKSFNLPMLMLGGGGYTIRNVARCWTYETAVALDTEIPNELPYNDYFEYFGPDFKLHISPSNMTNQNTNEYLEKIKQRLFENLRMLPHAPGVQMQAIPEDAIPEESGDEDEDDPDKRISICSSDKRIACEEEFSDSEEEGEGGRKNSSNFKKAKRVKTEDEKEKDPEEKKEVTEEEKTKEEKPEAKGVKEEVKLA
Method: <Experimental Example 1> Identification of HDAC Enzyme Activity Inhibition (In Vitro)
A selective HDAC6 inhibitor is important for selectivity of HDAC1 inhibition, which is a cause of side effects, and thus HDAC1/6 enzyme selectivity and cell selectivity (HDAC1: histone acetylation/HDAC6: tubulin acetylation) were identified.
(§1) A HDAC enzyme inhibitory capacity of a test material was measured by using HDAC1 Fluorimetric Drug Discovery Assay Kit (Enzolifesciences: BML-AK511) and HDAC6 human recombinant (Calbiochem: 382180). For a HDAC1 assay, samples were treated at a concentration of 100, 1000 and 10000 nM. For a HDAC6 assay, samples were treated at a concentration of 0.1, 1, 10, 100 and 1000 nM. After the above sample treatment, a reaction was continued at 37° C. for 60 minutes, then treated with a developer, and then subjected to a reaction at 37° C. for 30 minutes, after which fluorescence intensity (Ex 390, Em 460) was measured by using FlexStatin3 (Molecular device).

HDAC6 human recombinant = target: T2, HDAC6 human recombinant (Homo sapiens, UniProt Q9UBN7); test: HDAC enzyme activity inhibition (in vitro), HDAC6 assay; assay type: biochemical; details: samples at 0.1, 1, 10, 100 and 1000 nM; 37° C. 60 minutes; fluorescence Ex 390, Em 460; read-out: HDAC6 IC50
T2 construct: purchased Calbiochem 382180
T2 sequence (Q9UBN7 1-1215): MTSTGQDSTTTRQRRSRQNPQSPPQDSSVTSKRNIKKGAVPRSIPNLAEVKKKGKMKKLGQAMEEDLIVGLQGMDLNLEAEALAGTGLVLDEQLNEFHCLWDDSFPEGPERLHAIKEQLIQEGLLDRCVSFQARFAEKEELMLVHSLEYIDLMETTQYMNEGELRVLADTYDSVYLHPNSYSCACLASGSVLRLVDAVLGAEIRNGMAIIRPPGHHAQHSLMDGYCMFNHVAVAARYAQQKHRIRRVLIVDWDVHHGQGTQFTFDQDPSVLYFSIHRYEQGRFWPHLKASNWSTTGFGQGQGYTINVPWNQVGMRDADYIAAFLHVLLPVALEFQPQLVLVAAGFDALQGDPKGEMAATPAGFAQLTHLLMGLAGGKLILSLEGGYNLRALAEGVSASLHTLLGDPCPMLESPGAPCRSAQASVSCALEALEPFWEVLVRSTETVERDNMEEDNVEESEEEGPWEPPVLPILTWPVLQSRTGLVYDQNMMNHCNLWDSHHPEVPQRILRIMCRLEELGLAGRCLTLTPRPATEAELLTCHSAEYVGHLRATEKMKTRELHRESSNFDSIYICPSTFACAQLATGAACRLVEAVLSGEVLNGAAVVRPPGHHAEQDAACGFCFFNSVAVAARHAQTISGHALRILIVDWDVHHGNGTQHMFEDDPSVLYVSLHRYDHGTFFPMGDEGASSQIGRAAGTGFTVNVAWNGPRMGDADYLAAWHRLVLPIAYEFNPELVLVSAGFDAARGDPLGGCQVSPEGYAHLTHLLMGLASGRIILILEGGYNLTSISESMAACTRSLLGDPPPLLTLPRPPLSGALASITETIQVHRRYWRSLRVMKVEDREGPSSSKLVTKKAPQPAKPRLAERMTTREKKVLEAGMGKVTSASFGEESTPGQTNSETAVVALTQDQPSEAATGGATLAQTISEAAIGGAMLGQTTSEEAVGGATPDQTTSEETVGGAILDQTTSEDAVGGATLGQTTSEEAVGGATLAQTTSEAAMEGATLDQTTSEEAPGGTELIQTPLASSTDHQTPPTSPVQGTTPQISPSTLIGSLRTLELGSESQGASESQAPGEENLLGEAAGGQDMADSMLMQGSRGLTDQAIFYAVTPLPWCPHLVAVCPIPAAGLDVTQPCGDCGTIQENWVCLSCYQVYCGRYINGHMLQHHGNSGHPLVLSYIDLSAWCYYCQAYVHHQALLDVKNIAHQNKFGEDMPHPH
Method: as §1, with “For a HDAC6 assay, samples were treated at a concentration of 0.1, 1, 10, 100 and 1000 nM.” left out

| Structure (SMILES) | pIC50 (HDAC1) | pIC50 (HDAC6 human recombinant) |
| --- | --- | --- |
| Cc1oncc1C(=O)N1CCC(n2c(=O)n(Cc3ccc(-c4nnc(C(F)F)o4)cn3)c3cc(F)ccc32)CC1 [Compound 65, 3-((5-(5-(difluoromethyl)-1,3,4-oxadiazole-2-yl)pyridine-2-yl)methyl)-5-fluoro-1-(1-(5-methylisooxazole-4-carbonyl)piperidine-4-yl)-1,3-dihydro-2H-benzo[d]imidazole-2-one] | < 5.00 | 7.08 |
| CN1CCC(n2cc(-c3cc4oc(=O)n(Cc5ccc(-c6nnc(C(F)F)o6)cn5)c4cc3F)cn2)CC1 [Compound 360, 3-((5-(5-(difluoromethyl)-1,3,4-oxadiazole-2-yl)pyridine-2-yl)methyl)-5-fluoro-6-(1-(1-methylpiperidine-4-yl)-1H-pyrazole-4-yl)benzo[d]oxazole-2(3H)-one] | < 5.00 | 7.57 |
| CN1CCN(c2ncc(-c3cc4oc(=O)n(Cc5ccc(-c6nnc(C(F)F)o6)cn5)c4cc3F)cn2)CC1 [Compound 338, 3-((5-(5-(difluoromethyl)-1,3,4-oxadiazole-2-yl)pyridine-2-yl)methyl)-5-fluoro-6-(2-(4-methylpiperazine-1-yl)pyrimidine-5-yl)benzo[d]oxazole-2(3H)-one] | < 5.00 | 7.33 |
| CN1CCN(c2cc3oc(=O)n(Cc4ccc(-c5nnc(C(F)F)o5)cn4)c3cc2F)CC1 [Compound 317, 3-((5-(5-(difluoromethyl)-1,3,4-oxadiazole-2-yl)pyridine-2-yl)methyl)-5-fluoro-6-(4-methylpiperazine-1-yl)benzo[d]oxazole-2(3H)-one] | < 5.00 | 7.82 |
| CN1CCC(n2c(=O)n(Cc3ccc(-c4nnc(C(F)F)o4)cc3)c3cc(-c4ccc(C(F)(F)F)cc4)ccc32)CC1 [Compound 129] | < 5.00 | < 5.52 |
| CCN1CCC[C@H](n2c(=O)n(Cc3ccc(-c4nnc(C(F)F)o4)cn3)c3cc(F)c(-c4cccnc4)cc32)C1 [Compound 298, (S)-1-((5-(5-(difluoromethyl)-1,3,4-oxadiazole-2-yl)pyridine-2-yl)methyl)-3-(1-ethylpiperidine-3-yl)-6-fluoro-5-(pyridine-3-yl)-1,3-dihydro-2H-benzo[d]imidazole-2-one] | < 5.00 | 8.05 |
| CN1CCC(n2c(=O)n(Cc3ccc(-c4nnc(C(F)F)o4)cc3F)c3cc(F)c(-c4ccoc4)cc32)CC1 [Compound 115, 1-(4-(5-(difluoromethyl)-1,3,4-oxadiazole-2-yl)-2-fluorobenzyl)-6-fluoro-5-(furan-3-yl)-3-(1-methylpiperidine-4-yl)-1,3-dihydro-2H-benzo[d]imidazole-2-one] | < 5.00 | 7.11 |
| O=c1n(Cc2ccc(-c3nnc(C(F)F)o3)cn2)c2cc(F)ccc2n1C1CCN(C2CCC2)CC1 [Compound 52, 1-(1-cyclobutylpiperidine-4-yl)-3-((5-(5-(difluoromethyl)-1,3,4-oxadiazole-2-yl)pyridine-2-yl)methyl)-5-fluoro-1,3-dihydro-2H-benzo[d]imidazole-2-one] | < 5.00 |  |
| O=c1n(Cc2ccc(-c3nnc(C(F)F)o3)cn2)c2cc(F)ccc2n1C1CCS(=O)(=O)CC1 [Compound 188, 3-((5-(5-(difluoromethyl)-1,3,4-oxadiazole-2-yl)pyridine-2-yl)methyl)-1-(1,1-dioxydotetrahydro-2H-thiopyran-4-yl)-5-fluoro-1,3-dihydro-2H-benzo[d]imidazole-2-one] | < 5.00 |  |
| Cn1nccc1-c1cc2c(cc1F)n(Cc1ccc(-c3nnc(C(F)F)o3)cn1)c(=O)n2C [Compound 226, 1-((5-(5-(difluoromethyl)-1,3,4-oxadiazole-2-yl)pyridine-2-yl)methyl)-6-fluoro-3-methy 1-5-(1-methyl-1H-pyrazole-5-yl)-1,3-dihydro-2H-benzo[d]imidazole-2-one] | < 5.00 |  |
| CN1CCN(c2cc3c(cc2F)n(Cc2ccc(-c4nnc(C(F)F)o4)cn2)c(=O)n3C)CC1 [Compound 260, 1-((5-(5-(difluoromethyl)-1,3,4-oxadiazole-2-yl)pyridine-2-yl)methyl)-6-fluoro-3-methy 1-5-(4-methylpiperazine-1-yl)-1,3-dihydro-2H-benzo[d]imidazole-2-one] | < 5.00 |  |

Continued, values first:

| pIC50 (HDAC1) | pIC50 (HDAC6 human recombinant) | Structure (SMILES) |
| --- | --- | --- |
| < 5.00 | 7.82 | CN1CCC(n2c(=O)n(Cc3ccc(-c4nnc(C(F)F)o4)cn3)c3cc(Cl)c(Cl)cc32)CC1 [Compound 81, 5,6-dichloro-1-((5-(5-(difluoromethyl)-1,3,4-oxadiazole-2-yl)pyridine-2-yl)methyl)-3-(1-methylpiperidine-4-yl)-1,3-dihydro-2H-benzo[d]imidazole-2-one] |
| < 5.00 | 7.51 | CN1CCC(n2c(=O)n(Cc3ccc(-c4nnc(C(F)F)o4)cc3)c3cc(Cl)c(Cl)cc32)CC1 [Compound 85, 5,6-dichloro-1-(4-(5-(difluoromethyl)-1,3,4-oxadiazole-2-yl)benzyl)-3-(1-methylpiperidine-4-yl)-1,3-dihydro-2H-benzo[d]imidazole-2-one] |
| < 5.00 | 7.60 | O=c1oc2cc(-c3cncc(N4CCOCC4)c3)c(F)cc2n1Cc1ccc(-c2nnc(C(F)F)o2)cn1 [Compound 348, 3-((5-(5-(difluoromethyl)-1,3,4-oxadiazole-2-yl)pyridine-2-yl)methyl)-5-fluoro-6-(5-morpholinopyridine-3-yl)benzo[d]oxazole-2(3H)-one] |
| < 5.00 | 7.85 | CN1CC[C@@H](n2c(=O)n(Cc3ccc(-c4nnc(C(F)F)o4)cn3)c3cc(F)c(-c4cccc5[nH]ccc45)cc32)C1 [Compound 273, (R)-1-((5-(5-(difluoromethyl)-1,3,4-oxadiazole-2-yl)pyridine-2-yl)methyl)-6-fluoro-5-(1H-indole-4-yl)-3-(1-methylpyrrolidine-3-yl)-1,3-dihydro-2H-benzo[d]imidazole-2-one] |
| < 5.00 | 7.47 | COC(=O)N1CCC(n2c(=O)n(Cc3ccc(-c4nnc(C(F)F)o4)cn3)c3cc(F)ccc32)CC1 [Compound 68, Methyl 4-(3-((5-(5-(difluoromethyl)-1,3,4-oxadiazole-2-yl)pyridine-2-yl)methyl)-5-fluoro-2-oxo-2,3-dihydro-1H-benzo[d]imidazole-1-yl)piperidine-1-carboxylate] |
| < 5.00 | 7.77 | O=c1oc2cc(-c3ccncc3)c(F)cc2n1Cc1ccc(-c2nnc(C(F)F)o2)cn1 [Compound 278, 3-((5-(5-(difluoromethyl)-1,3,4-oxadiazole-2-yl)pyridine-2-yl)methyl)-5-fluoro-6-(pyridine-4-yl)benzo[d]oxazole-2(3H)-one] |
| < 5.00 | 6.64 | CN1CC(N2Cc3ccccc3N(Cc3ccc(-c4nnc(C(F)F)o4)cc3F)C2=O)C1 [Compound 32, 1-(4-(5-(difluoromethyl)-1,3,4-oxadiazole-2-yl)-2-fluorobenzyl)-3-(1-methylazetidine-3-yl)-3,4-dihydroquinazoline-2(1H)-one] |
| < 5.00 | 7.34 | CC(=O)N1CCC(n2c(=O)n(Cc3ccc(-c4nnc(C(F)F)o4)cc3F)c3cc(F)ccc32)CC1 [Compound 75] |
